Experimental data from patent publication US20190000908A1, “COMPOSITIONS AND METHODS FOR TREATING AND/OR PREVENTING A URINARY TRACT INFECTION” (priority 2017, published 2019).

Assays:
Assay type in all cases: cell-based
E. coli NCTC 4169 = test: Human Red Blood Cell (HRBC) agglutination assay, E. coli NCTC 4169; conditions: strain 4169, FIG. 1 Raw C
Protocol: (§1) A whole blood (type 0 positive) was acquired from a volunteer and stored with EDTA at 4° C. Before the agglutination experiment, the red blood cells were isolated by centrifugation at 800 rpm for 15 minutes (in order to remove the platelets and plasma). The resulting red blood cells were suspended in phosphate buffered (PBS, pH 7.4) and washed three times to remove EDTA and other blood components, after each wash the supernatant was removed and the remaining cells were resuspended in PBS. Finally, RBC were diluted in 10 ml of PBS to create 1% RBC suspension that was stored at 4° C. until use.
(§2) Standard E. coli strains (NCTC 4169 and NCTC 9775) were grown on TSA plates for 24 h at 37° C. Colony was collected with sterile culturing needle and cells suspended in PBS and washed three times with PBS, after each wash the supernatant was removed. The cells were resuspended in PBS at final concentration of 10^9 cells/ml and stored at 4° C. for an hour.
(§3) The experiments were conducted in round bottom 96-well plate, with final volume 200 μl, made of 98 μl of the 1% RBC suspension, 2 μl extract (or PBS) and 100 μl bacterial suspension or PBS (as control). Extract were prepared in advance at different concentrations in PBS (10 mg/ml, 3 mg/ml, 1 mg/ml, 50 μg/ml and 1 μg/ml). […]

E. coli NCTC 9775 = test: Human Red Blood Cell (HRBC) agglutination assay, E. coli NCTC 9775; conditions: strain 9775, FIG. 1 Raw C
Protocol: as §1, §2, §3

[1] = test system: E. coli strains (NCTC 4169 and NCTC 9775); test: Human Red Blood Cell (HRBC) agglutination assay, strain not specified for the result; conditions: human RBC + E. coli; strain not stated
Protocol: as §1, §2, §3

O=C[C@@H](O)[C@@H](O)[C@H](O)[C@H](O)CO [D-mannose, D-Mannose]
D-mannose sensitivity of bacteria-induced RBC agglutination (E. coli NCTC 4169): not D-mannose sensitive
D-mannose sensitivity of bacteria-induced RBC agglutination (E. coli NCTC 9775): D-mannose sensitive
concentration that induced agglutination prevention/inhibition [1]: 5 to 10 mg/mL
